Results as given in patent publication US9884851B2, “Heterocycle-bisamide inhibitors of scavenger receptor BI” (THE BROAD INSTITUTE, INC., priority 2012, dated 2018).

Legend:
Plasma protein binding = assay type: in vitro ADME; conditions: human plasma; read-out: plasma protein binding (PPB), bound (converted)
SR-BI [1] = target: T1, SR-BI (Mus musculus, UniProt Q61009); test: Radioactive HDL uptake assay (wild type SR-BI); assay type: cell-based, murine; set-up: expressed in transfected cells; host or cells: ldlA[mSR-BI], Chinese hamster ovary (CHO) cells lacking LDL receptor (Krieger Laboratory); conditions: [3H]cholesteryl ester HDL; read-out: IC50 in nonfluorescent, radiolabeled version of the uptake assay
T1 sequence (Q61009 1-509): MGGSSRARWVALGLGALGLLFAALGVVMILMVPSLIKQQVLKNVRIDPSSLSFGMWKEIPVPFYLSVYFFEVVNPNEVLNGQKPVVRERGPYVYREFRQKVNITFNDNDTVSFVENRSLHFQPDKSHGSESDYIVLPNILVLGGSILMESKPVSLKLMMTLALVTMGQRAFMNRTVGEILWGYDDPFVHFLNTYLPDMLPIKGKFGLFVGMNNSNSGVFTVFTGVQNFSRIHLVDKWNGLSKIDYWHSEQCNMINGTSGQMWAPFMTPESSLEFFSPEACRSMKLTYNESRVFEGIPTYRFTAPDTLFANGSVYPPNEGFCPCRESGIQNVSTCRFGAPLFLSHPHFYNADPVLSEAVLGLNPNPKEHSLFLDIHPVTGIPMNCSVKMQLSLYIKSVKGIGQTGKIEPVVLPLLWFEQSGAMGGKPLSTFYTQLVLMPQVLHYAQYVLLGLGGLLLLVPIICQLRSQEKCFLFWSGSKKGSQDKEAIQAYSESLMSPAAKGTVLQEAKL
Source text: Radioactive HDL Uptake Assay (Wild Type SR-BI) (SA 8: AID No. 588836)
The goal of this assay was to verify compounds that disrupt the lipid uptake from HDL particles to SR-BI scavenger receptor-expressing cells using an alternative means of labeling HDL-particles and avoiding any type of fluorescence measurement. To measure this binding event, HDL particles are labeled with [^3H]cholesteryl ester and added to mSR-BI expressing cells. Cells take up the radioactive lipids from HDL via SR-BI in 2 to 3 hours. After significant uptake of the lipids from HDL, the radiolabel can be detected by liquid scintillation counting. The level of radioactivity correlates with the amount of HDL lipid uptake. The uptake of lipid from the HDL particles can be inhibited by the compound BLT-1 or when co-treated with an excess of unlabeled HDL. The mSR-BI expressing cells utilized in the assay are a Chinese hamster ovary (CHO) cell line lacking expression of the LDL receptors and overexpressing the scavenger receptor, SR-BI. Inhibitors of SR-BI and HDL lipid uptake will have a reduction in liquid scintillation counts.

Stability in PBS = assay type: physicochemical; conditions: 1% DMSO, over 48 hours
Protocol: We noticed that the concentration of the probe fluctuated through the course of the assay (data not shown). We believe that this fluctuation is due to the low kinetic solubility of the probe. Thus, we decided to determine the amount of undissolved probe present in the well after it was treated with PBS for a given length of time, relative to the amount of undissolved probe at the start of the assay. The wells were centrifuged and the supernatant was removed after various time points, then acetonitrile was added to dissolve the remaining solid in the wells, and the amount of probe was quantified. […] The stability of the probe was confirmed by measuring stability in human plasma, with >99% remaining after a 5-hour incubation period. […] FIG. 5 summarizes known properties of the probe.

SR-BI [2] = target: T1, SR-BI; test: HDL binding assay (Alexa 488 HDL); assay type: cell-based, murine; set-up: expressed in transfected cells; host or cells: ldlA[mSR-BI], Chinese hamster ovary (CHO) cells lacking LDL receptor (Krieger Laboratory)
Protocol: HDL binding was assessed using Alexa Fluor 488-labeled HDL particles. For this assay, the Alexa 488 dye was directly covalently bound to apolipoprotein components of the HDL particle via primary amines; thus, no transfer of the fluorophore to cell membranes occurs. Instead, direct binding of the HDL particles to SR-BI can be measured. As a positive control, BLT-1, which is known to increase binding, was used at 1 μM. It is possible that a compound can reduce binding of HDL to the receptor, and this would lead to a decrease in signal. This assay is used to characterize the mechanism of action of a particular compound; therefore, any outcome in the assay is acceptable. Data were normalized against DMSO and the positive control (1 μM BLT-1) in Genedata Assay Analyzer.

[3] = Cell cytotoxicity assay (CellTiter-Glo); conditions: Chinese hamster, ldlA[mSR-BI] cells
Protocol: It is possible that a compound will cause cells to decrease HDL-mediated DiI uptake due to nonspecific consequences of cellular toxicity, representing a second class of false positive hits. The cells were treated with compounds for 3 hours or 24 hours, and then cell viability was measured using the CellTiter-Glo Assay (Promega), a luciferase-based reagent that measures cellular ATP levels. The compounds were tested at different concentrations to determine IC50 values. […] Data were normalized against DMSO and the positive control (1 μM BLT-1) in Genedata Assay Analyzer.
All available dry powder samples of the remaining, non-quenching compounds were procured from commercial sources and purities were determined. The compounds obtained were then retested in the primary assay and in cytotoxicity assays. We wanted to rule out any compounds that were cytotoxic, especially in the 3-hour time span of the primary DiI-HDL uptake assay. Therefore, compounds were tested in ldl[mSR-BI] cells for cytotoxicity at 3 hours and 24 hours using the CellTiter-Glo assay (Promega) that measures cellular ATP as a marker of cell viability. […] Compounds were screened for inhibition of endocytosis using labeled transferrin, which is known to bind the transferrin receptor, enter cells by clathrin-mediated endocytosis, and move to endosomes before being recycled to the cell surface.

ldlA7 cells = test: DiI-HDL uptake assay in the absence of SR-BI (ldlA7 counterscreen); assay type: cell-based, Chinese hamster; conditions: Cricetulus griseus; parental cells not overexpressing SR-BI
Protocol: DiI-HDL Uptake Assay in the Absence of SR-BI (SA 7: AID No. 588825)
In the primary assay, the cell line used to measure DiI-HDL uptake lacks the LDL receptor and overexpresses SR-BI. […] As in the primary assay, 10 μg protein/ml of DiI-HDL was used to measure DiI uptake into the cells after 3 hours of incubation with different concentrations of compound.

[4] = target: T2, purified SR-BI (mSR-BI-t1) (Mus musculus, UniProt Q61009); test: Lipid transport assay in liposomes; assay type: biochemical, murine; conditions: [3H]CE uptake into SR-BI liposomes
T2 construct: made in house; host or cells: HEK293S GnTI-defective cells, tetracycline-inducible promoter
T2 sequence (Q61009 1-509): T1 sequence (Q61009 1-509)
Source text: This assay provides confirmation of activity via SR-BI by measuring the uptake of [^3H]cholesteryl ester ([^3H]CE) into liposomes loaded with purified SR-BI. For the purification of C-terminally epitope-tagged murine SR-BI (mSR-BI-t1) with uniform, truncated N-linked oligosaccharide chains, we overexpressed mSR-BI-t1 in HEK293S cells. The mSR-BI-t1 was expressed in an N-acetylglucosaminyltransferase I (GnTI)-defective HEK293S derivative, HEK293S GnTI (2), which generates a glycoprotein with uniform, truncated N-linked oligosaccharide chains under the control of a tetracycline-inducible promoter. mSR-BI-t1 was immunoaffinity purified to virtual homogeneity, and the detergent-solubilized receptor was reconstituted into liposomes. Subsequently, the in vitro SR-BI-mediated selective uptake of [^3H]CE from [^3H]CE-HDL in the reconstituted liposomes was measured. […] Briefly, 20 μg of SR-BI (or an equivalent volume of protein-free buffer to generate control liposomes that are devoid of SR-BI) was reconstituted into liposomes by acetone precipitation. […] Incubation was continued for 4 hours at 37° C., and then selective uptake of [^3H]CE into liposomes was determined using the previously described filter binding assays (15). SR-BI-selective uptake values were determined.

With `C[C@H](C(=O)NC1CCCC1)N(C(=O)Cn1nnc(-c2ccc3c(c2)OCO3)n1)C1CCCCC1` [ML279, (R)-2-(2-(5-(Benzo[d][1,3]dioxol-5-yl)-2H-tetrazol-2-yl)-N-cyclohexylacetamido)-N-cyclopentylpropanamide] the fraction unbound (Plasma protein binding) was 0.235, the IC50 (SR-BI [1]) was 1 µM and the “stability in PBS (in words)” value (Stability in PBS) was “stable to PBS”. For the same molecule, the AC50 (SR-BI [2]; Alexa Fluor 488-labeled HDL) was 0.27 µM, the “effect on binding of HDL to SR-BI (in words)” value (SR-BI [2]; Alexa-488 labeled HDL) was “increases binding of HDL to the receptor” and the EC50 at 24 h [3] was greater than 35 µM. The IC50 at 24 h [3] was greater than 35 µM, the IC50 (ldlA7 cells) was greater than 35 µM and the “interaction with SR-BI in purified liposomes (in words)” value [4] was “direct interaction between the probe and SR-BI”.
